Laboratory results taken from publication PMC10536132, “Arginine Gemini-Based Surfactants for Antimicrobial and Antibiofilm Applications: Molecular Interactions, Skin-Related Anti-Enzymatic Activity and Cytotoxicity” (Molecules, 2023).
Like-named read-outs stand apart in the source and are kept apart here. Marks after values point to notes of the source that are not given here.

Assays:
[1] = Apparent pKa by direct titration with NaOH; assay type: physicochemical; conditions: aqueous solution, concentration above the minimum aggregation concentration; pH at semi-equivalence point
Procedure: In order to determine the ionization state of these gemini surfactants at the pH used to investigate their biological properties, the apparent acid pKa was determined for each of them. The pKap value has been determined by means of a direct titration with NaOH of an aqueous solution of each compound. The surfactant concentrations used were in all cases higher than the minimum aggregation concentration, thus avoiding possible deviations in the pK value due to the monomer–aggregate balance. The pKap values can be estimated from the pH at the semi-equivalence point that is reached when the molar ratio of protonated and non-protonated species is 1:1. In these conditions, we have that the pH = pKa.
The pKa value of each compound has been determined by means of a direct titration with NaOH of an aqueous solution of each compound. The pH was measured using the pH electrode Thermo Electron Corporation ORION 8103SC and the temperature was controlled by a thermostatic bath, Heto CBN 8-30. The pKa values can be estimated from the pH at the semi-equivalence point, which contains a 1:1 molar ratio of protonated and non-protonated species; at this point, pH = pKap.

[2] = set-up: method as in doi:10.1021/la981295l; conditions: cited from earlier work
[3] = Cell viability, NRU assay; assay type: cell-based; conditions: human, A431 cells (squamous cell carcinoma), A431, surfactant in solution at 35.6 µg/mL, read-out: cellular viability
Procedure: (§1) The immortal human keratinocyte (HaCaT) and the squamous cell carcinoma (A431) were obtained from Celltec, University of Barcelona. The cells were grown in DMEM medium (4.5 g/L glucose) supplemented with 10% (v/v) FBS, 2 mM L-glutamine, 100 U/mL of penicillin and 100 μg/mL of streptomycin at 37 °C under 5% CO2. Cells were routinely cultured in 75 cm^2 culture flasks and were trypsinized using trypsin-EDTA when reached approximately 80% of confluence.
(§2) HaCaT cells (1 × 10^5 cells/mL) and A431 cells (5 × 10^4 cells/mL) were grown at the defined densities into the central 60 wells of a 96-well microplate. Cells were incubated for 24 h under 5% CO2 at 37 °C. The medium was then removed and the cells were incubated with the surfactants (100 μL), previously diluted 1:1 (v/v), reaching a concentration of […] in DMEM medium supplemented with 5% FBS using two different colorimetric methods for quantification, as follows.
(§3) The accumulation of the neutral red dye in the lysosomes of viable, undamaged cells constitutes the basis of the neutral red uptake (NRU) assay. After the cells were incubated for 24 h with the corresponding systems at 35.6 µg/mL, the medium was removed and the surfactants´ solutions were incubated for 3 h with the NRU dye solution (50 μg/mL) dissolved in the medium without FBS and phenol red (Lonza). Cells were then washed with sterile PBS, followed by the addition of 100 μL of a solution containing 50% ethanol absolute and 1% acetic acid in distilled water to extract the non-adhered dye. The microplates were then stirred for 5 min at 25 °C to promote the dissolution. Finally, the absorbance of the resulting solutions was measured at λ = 550 nm using a Bio-Rad 550 microplate reader (Hercules, CA, USA).

[4] = target: porcine pancreatic elastase (Sus scrofa, UniProt P00772); experiment: Elastase inhibitory assay; assay type: biochemical; conditions: 40 µL of 1000 µg/mL stock; EGCG 250 μM
Procedure: The elastase inhibition was tested according to the method described by […] et al.. First, a stock solution of each surfactant at 1000 μg/mL was prepared in sterile ultrapure water. A stock solution of porcine pancreatic elastase at 3.33 mg/mL in sterile ultrapure water was also prepared. The substrate […] (Ala) 3-p-nitroanilide was dissolved in 0.2 mM Tris-HCl buffer solution (pH 8.0). The samples (40 μL) were then diluted and incubated together with the enzyme for 15 min prior to the substrate addition. Negative control was sterile ultrapure water, while EGCG (250 μM or 0.114 mg/mL) was used as the positive control. The absorbance at λ = 410 nm was measured immediately after the substrate addition and continuously during the next 2 h using an Elx800 Microplate Reader (Biotek®). […] The anti-elastase activity (in %), determined in triplicate, was calculated according to the following equation:(2) Elastase inhibitory activity %=A1-A2/A1×100 where A1 and A2 represent the absorbance in the absence and presence of the testing samples, respectively.

[5] = set-up: method as in doi:10.1021/la981295l; conditions: cited from earlier work; remark: listed apart in the source
[6] = Cell viability, NRU assay; assay type: cell-based, human; conditions: human, HaCaT cells (immortal human keratinocytes); NRU, HaCaT, surfactant in solution at 35.6 µg/mL, 24 h; read-out: cellular viability
Procedure: as §1, §2, §3

bovine hyaluronidase = experiment: Hyaluronidase inhibitory activity; assay type: biochemical; conditions: negative inhibition values
Procedure: The hyaluronidase inhibitory activity was performed according to the method used by Altinyay et al. with some modifications. Briefly, a work solution containing bovine hyaluronidase (7900 units/mL) in 0.1 M acetate buffer (pH 3.6) was prepared. Fifty microliters of the work solution were mixed 1:1 with the surfactants’ solution in 5% DMSO. For the negative control, 50 μL of 5% DMSO was used, while EGCG was used as positive control. After 20 min of incubation at 37 °C, 50 μL of calcium chloride (12.5 mM) was added to the mixture and again incubated for 20 min at 37 °C. At that point, 250 μL sodium hyaluronate (1.2 mg/mL) was added and incubated for 40 min at 37 °C. After incubation, the mixture was treated with 50 μL of 0.4 M NaOH and 100 μL of 0.2 M sodium borate and then incubated for 3 min in a boiling water bath. After cooling to room temperature, 1.4 mL of p-dimethylaminobenzaldehyde solution was added to the reaction mixture, being further incubated at 37 °C for 20 min. The resulting colored solution was measured at λ = 585 nm (PerkinElmer-Lambda 35, Brazil). The hyaluronidase inhibitory activity of each sample was calculated according to the following formula:(3) Hyaluronidase inhibitory activity %=A1−A2/A1×100 where A1 and A2 represent the absorbance in the absence and presence of the testing sample, respectively.

[7] = set-up: method as in doi:10.1021/la981295l; conditions: cited from earlier work; remark: listed apart in the source

Sequence of porcine pancreatic elastase (P00772 27-266): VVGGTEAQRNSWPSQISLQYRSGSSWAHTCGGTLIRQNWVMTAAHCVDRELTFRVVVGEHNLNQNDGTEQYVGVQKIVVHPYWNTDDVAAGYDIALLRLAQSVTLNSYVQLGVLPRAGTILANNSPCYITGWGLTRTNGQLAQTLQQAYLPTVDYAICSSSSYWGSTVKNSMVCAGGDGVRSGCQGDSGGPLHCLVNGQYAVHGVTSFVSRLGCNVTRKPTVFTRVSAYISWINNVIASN

Question: With `CCCCCCCCCCCC(=O)NC(CCCNC(=N)N)C(=O)NCCCCCCCCCNC(=O)C(CCCNC(=N)N)NC(=O)CCCCCCCCCCC` (stereo not drawn) [C9(LA)2, Bis (N^α-lauroyl arginine 1,3-nonane) diamide] as the compound, how does the pKap [1] read?
Answer: 9.4

Question: What about the “CMC (mM) Surface Tension” value [2] of the same compound?
Answer: 0.003 * mM

Question: What about the γcmc ([2]; surface tension at the cmc) of the same compound?
Answer: 34 * mN/m

Question: And the viability at 24 h, 35.6 µg/mL [3]?
Answer: 60.7%

Question: And the “anti-elastase activity (inhibition)” value [4]?
Answer: 15.9%

Question: What about the “CMC (mM) Fluorescence” value [5] of the same compound?
Answer: 0.3 * mM

Question: What about the viability at 24 h, 35.6 µg/mL [6] of the same compound?
Answer: 60.7%

Question: What about the “increase of hyaluronidase enzymatic activity” value (bovine hyaluronidase) of the same compound?
Answer: 29.9%

Question: And the “CMC (mM) Conductivity” value [7]?
Answer: 0.3 * mM
